Measured values taken from US12064503B2, “High-potency vitamin C and sugar alcohol topical formulations” (ICB (an ABC), LLC, priority 2020, dated 2024).

Columns and labels:
[1] = Solubility in non-aqueous skin-compatible solvents; conditions: neat solvent
[2] = tested on: skin; conditions: cream containing 10% MAP; cited from earlier work
[3] = tested on: skin; conditions: topical; cited from earlier work
[4] = tested on: skin; conditions: topical use of 4% HQ or 5% Vitamin C; cited from earlier work
[5] = tested on: skin; conditions: concentrations of 0.2%; clinical data from SEPPIC; cited from earlier work

## CO[C@H]1CO[C@H]2[C@@H]1OC[C@H]2OC [Dimethyl isosorbide]
[1]
  ability of the solvent to solubilize ascorbic acid: very limited

## O=C1O[C@H]([C@@H](O)CO)C([O-])=C1OP(=O)([O-])[O-].O=C1O[C@H]([C@@H](O)CO)C([O-])=C1OP(=O)([O-])[O-].[Mg+2].[Mg+2].[Mg+2] [MAP, magnesium ascorbyl phosphate]
[2]
  brighten/lighten the appearance of the skin: effectively brighten/lighten

## CC(C)(CO)[C@@H](O)C(=O)NCCCO [Panthenol]
[3]
  concentration at which inhibition of transepidermal water loss is apparent: ≥ 1%

## O=C1O[C@H]([C@@H](O)CO)C(O)=C1O [AA, L-ascorbic acid]
[4]
  improvement: 62.5%

## Oc1ccc(O)cc1 [HQ, hydroquinone]
[4]
  improvement: 93%
  side-effects: 68.7%

## madecassoside
[5]
  ability to reduce erythema (skin redness): desirable ability to reduce erythema
